Measured values reported in patent publication US12486301B2, “8-fluoro-4-alkylumbelliferyl α-D-glucopyranoside, biological sterilization indicator including the same and its use in a method of determining efficacy of a sterilization process” (Solventum Intellectual Properties Company, priority 2019, dated 2025).

Assays:
[1] = Enzyme substrate degradation in culture media at various temperatures (fluorescence); type: physicochemical; conditions: 0.3 mg/mL; for MEASURED FLUORESCENCE, RFU 70° C. 15 min: 70° C. dry heat block 15 min; for MEASURED FLUORESCENCE, RFU 100° C. 15 + 15 min: 100° C. 15 min, second time 15 min; for MEASURED FLUORESCENCE, RFU 100° C. 15 min: 100° C. heat block 15 min; for MEASURED FLUORESCENCE, RFU RT 15 min: room temperature (24.5° C.)
Protocol: Culture media was prepared by dissolving 5 g/L peptone C (BD 211921) and 12 g/L phytone peptone (BD BBL 211906) in deionized water. The pH was adjusted with 1 N NaOH or 0.1 N HCl, the media brought to volume, and then filter sterilized with a 0.22 micron PES filter. Stock solutions ([…]) of 8′-fluoro-4′-methylumbelliferyl-α-D-glucopyranoside, 6′-fluoro-4′-methylumbelliferyl-α-D-glucopyranoside, and 4-methylumbelliferyl-α-D-glucopyranoside were prepared in DMSO. The aforementioned substrates were added to culture media at a final concentration of 0.1 mg/ml and media were then 0.22 μm filter sterilized.
(§1) One milliliter of filter-sterilized culture media (pH 6) containing 0.3 mg/ml of 8′-fluoro-4′-methylumbelliferyl-[…]-D-glucopyranoside substrate was transferred to three 1.5 ml microcentrifuge tubes. One of the 1.5 ml tubes was kept at room temperature (24.5° C.). The second tube was placed in a 70° C. dry heat block for 15 min and the third tube was placed in a 100° C. heat block for 15 min. Tubes were kept at room temperature for 30 min following heat exposure, briefly vortexed and centrifuged to collect liquid. One hundred microliters of culture media with substrate from each of the tubes was transferred to two wells (100 microliters per well) of a black 96-well microtiter plate with (NUNC #165301, Thermo Fisher Scientific). The top of the plate was covered with an optically clear sealing film (product #4311971, Applied Biosystems Corporation). Fluorescence readings (360 nm excitation/455 nm emission at 50% gain) were taken from the top of the plate.
(§2) The tube exposed to 100° C. (with 800 ul of remaining media with substrate) was exposed for a second time to 100° C. for 15 min in a dry heat block. One hundred microliters of culture media with substrate from the tube was transferred to two wells (100 microliters per well) of a black 96-well microtiter plate with (NUNC #165301, Thermo Fisher Scientific). The top of the plate was covered with an optically clear sealing film (product #4311971, Applied Biosystems Corporation). Fluorescence readings (360 nm excitation/455 nm emission at 50% gain) were taken from the top of the plate. In Table 9, the mean fluorescence values detected (RFU) for each of the heating conditions are reported.
as §1, with “7)” for “6)”
as §2, with “10,” for “9,”, “reported. […]” for “reported.”

[2] = tested on: Geobacillus stearothermophilus spores (ATCC 7953); assay: Fluorescence from enzyme substrates incubated with Geobacillus stearothermophilus spores in culture media; type: cell-based; conditions: substrate 0.1 mg/mL, 60° C.
[3] = pH 6 culture media, 5×10^3 spores
[4] = pH 6 culture media, 5×10^6 spores
[5] = pH 7 culture media, 5×10^6 spores
[6] = pH 8 culture media, 5×10^3 spores
[7] = pH 8 culture media, 5×10^6 spores
[8] = pH 9 culture media, 5×10^3 spores
[9] = pH 9 culture media, 5×10^6 spores

- MEASURED FLUORESCENCE, RFU 70° C. 15 min ([1]; pH 6 culture media): 932.5 RFU
- MEASURED FLUORESCENCE, RFU 100° C. 15 + 15 min ([1]; pH 6 culture media): 2005 RFU
- MEASURED FLUORESCENCE, RFU 100° C. 15 min ([1]; pH 6 culture media): 1486.5 RFU
- MEASURED FLUORESCENCE, RFU RT 15 min ([1]; pH 6 culture media, no spores, 360 nm excitation/455 nm emission): 897.5 RFU
- MEASURED FLUORESCENCE, RFU 70° C. 15 min ([1]; pH 7 culture media): 1012 RFU
- MEASURED FLUORESCENCE, RFU 100° C. 15 + 15 min ([1]; pH 7 culture media): 2654.5 RFU
- MEASURED FLUORESCENCE, RFU 100° C. 15 min ([1]; pH 7 culture media): 1690.5 RFU
- MEASURED FLUORESCENCE, RFU RT 15 min ([1]; pH 7 culture media): 924.5 RFU
- MEASURED FLUORESCENCE, RFU 70° C. 15 min ([1]; pH 8 culture media): 1079.5 RFU
- MEASURED FLUORESCENCE, RFU 100° C. 15 + 15 min ([1]; pH 8 culture media): 3160.5 RFU
- MEASURED FLUORESCENCE, RFU 100° C. 15 min ([1]; pH 8 culture media): 2121.5 RFU
- MEASURED FLUORESCENCE, RFU RT 15 min ([1]; pH 8 culture media): 983 RFU
- MEASURED FLUORESCENCE, RFU 70° C. 15 min ([1]; pH 9 culture media): 1218 RFU
- MEASURED FLUORESCENCE, RFU 100° C. 15 + 15 min ([1]; pH 9 culture media): 3964 RFU
- MEASURED FLUORESCENCE, RFU 100° C. 15 min ([1]; pH 9 culture media): 2728 RFU
- MEASURED FLUORESCENCE, RFU RT 15 min ([1]; pH 9 culture media): 994.5 RFU
Structure (SMILES): Cc1cc(=O)oc2cc(O[C@H]3O[C@H](CO)[C@@H](O)[C@H](O)[C@H]3O)c(F)cc12 [Example 6F-MUG, 6′-Fluoro-4′-methylumbelliferyl […]-D-glucopyranoside]
- MEASURED FLUORESCENCE, RFU +5 min [2, 3]: 1200 RFU
- MEASURED FLUORESCENCE, RFU +30 min [2, 3]: 6663 RFU
- MEASURED FLUORESCENCE, RFU 10 sec [2, 4]: 53357 RFU
- MEASURED FLUORESCENCE, RFU +5 min [2, 4]: 60972 RFU
- MEASURED FLUORESCENCE, RFU +10 min [2, 4]: 58039 RFU
- MEASURED FLUORESCENCE, RFU +30 min [2, 4]: 55966 RFU
- MEASURED FLUORESCENCE, RFU 10 sec ([2]; pH 7 culture media, 5×10^3 spores): 879 RFU
- MEASURED FLUORESCENCE, RFU 10 sec [2, 5]: 67489 RFU
- MEASURED FLUORESCENCE, RFU +5 min [2, 5]: 80834 RFU
- MEASURED FLUORESCENCE, RFU +10 min [2, 5]: 78888 RFU
- MEASURED FLUORESCENCE, RFU +30 min [2, 5]: 75469 RFU
- MEASURED FLUORESCENCE, RFU 10 sec [2, 6]: 825 RFU
- MEASURED FLUORESCENCE, RFU +5 min [2, 6]: 878 RFU
- MEASURED FLUORESCENCE, RFU +10 min [2, 6]: 1204 RFU
- MEASURED FLUORESCENCE, RFU 10 sec [2, 7]: 49967 RFU
- MEASURED FLUORESCENCE, RFU +5 min [2, 7]: 81623 RFU
- MEASURED FLUORESCENCE, RFU +10 min [2, 7]: 85491 RFU
- MEASURED FLUORESCENCE, RFU +30 min [2, 7]: 78890 RFU
- MEASURED FLUORESCENCE, RFU 10 sec [2, 8]: 870 RFU
- MEASURED FLUORESCENCE, RFU +5 min [2, 8]: 833 RFU
- MEASURED FLUORESCENCE, RFU +10 min [2, 8]: 892 RFU
- MEASURED FLUORESCENCE, RFU +30 min [2, 8]: 2376 RFU
- MEASURED FLUORESCENCE, RFU 10 sec [2, 9]: 22519 RFU
- MEASURED FLUORESCENCE, RFU +5 min [2, 9]: 56806 RFU
- MEASURED FLUORESCENCE, RFU +10 min [2, 9]: 78179 RFU
- MEASURED FLUORESCENCE, RFU +30 min [2, 9]: 76196 RFU
